pKi: −log10 of the molar value.
Assays:
Adenosine receptor A1 = target: T1, Adenosine receptor A1 (Homo sapiens, UniProt P30542); test: Binding affinity at adenosine A1 receptor.
T1 sequence (P30542 whole entry): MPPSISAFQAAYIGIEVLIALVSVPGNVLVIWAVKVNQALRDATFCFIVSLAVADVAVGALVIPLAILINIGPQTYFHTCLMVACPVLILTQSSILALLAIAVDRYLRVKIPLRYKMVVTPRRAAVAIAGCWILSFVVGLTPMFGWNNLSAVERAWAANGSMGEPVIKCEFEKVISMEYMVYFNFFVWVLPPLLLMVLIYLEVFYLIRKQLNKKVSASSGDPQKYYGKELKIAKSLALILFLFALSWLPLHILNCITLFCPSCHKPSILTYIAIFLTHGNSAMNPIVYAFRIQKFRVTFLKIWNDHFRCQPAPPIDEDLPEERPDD

Plasmepsin II = Plasmepsin II (Plasmodium falciparum, UniProt P46925); test: Binding affinity towards plasmepsin-2 in Plasmodium falciparum.
Chain of Plasmepsin II (P46925 whole entry): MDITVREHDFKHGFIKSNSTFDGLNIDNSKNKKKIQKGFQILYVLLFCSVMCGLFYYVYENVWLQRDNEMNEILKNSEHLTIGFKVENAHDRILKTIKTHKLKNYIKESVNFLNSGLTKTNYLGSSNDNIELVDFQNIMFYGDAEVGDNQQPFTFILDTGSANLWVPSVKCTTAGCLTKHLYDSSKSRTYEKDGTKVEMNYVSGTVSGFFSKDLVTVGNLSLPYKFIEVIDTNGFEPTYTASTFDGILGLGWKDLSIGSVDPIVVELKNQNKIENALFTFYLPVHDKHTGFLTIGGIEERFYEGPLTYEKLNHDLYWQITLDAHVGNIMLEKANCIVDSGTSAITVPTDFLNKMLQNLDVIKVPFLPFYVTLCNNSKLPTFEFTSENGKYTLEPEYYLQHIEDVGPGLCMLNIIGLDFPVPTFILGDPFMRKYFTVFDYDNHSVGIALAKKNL

Cathepsin D = Cathepsin D (Homo sapiens, UniProt P07339); test: Binding affinity towards human cathepsin D.
Chain of Cathepsin D (P07339 65-162 limits assumed): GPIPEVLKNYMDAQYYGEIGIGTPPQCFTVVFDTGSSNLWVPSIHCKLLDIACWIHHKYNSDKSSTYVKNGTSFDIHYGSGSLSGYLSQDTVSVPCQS
Chain of Cathepsin D (P07339 169-412 limits assumed): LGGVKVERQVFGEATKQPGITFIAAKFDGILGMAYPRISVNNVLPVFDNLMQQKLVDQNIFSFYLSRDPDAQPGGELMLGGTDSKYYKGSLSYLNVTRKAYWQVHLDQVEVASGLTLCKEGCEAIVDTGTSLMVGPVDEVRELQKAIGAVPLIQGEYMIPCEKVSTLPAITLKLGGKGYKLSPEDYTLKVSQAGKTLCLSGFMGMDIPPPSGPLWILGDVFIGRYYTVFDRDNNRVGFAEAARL

Structure (SMILES) | pKi (Adenosine receptor A1) | pKi (Plasmepsin II) | pKi (Cathepsin D)
CC1C(=O)c2nc(CCCCN3N=C(c4ccccc4)CCC3=O)[nH]c2N(C)C1=O (stereo not given) | 5.67 |  | 
CCCC1C(=O)c2nc(CCN3N=C(Cl)CCC3=O)[nH]c2N(C)C1=O (stereo not given) | 6.33 |  | 
CCCCNC(=O)CC(O)C(CC(C)C)NC(=O)C(NC(=O)CN1CCC(C(N)=O)(c2ccccc2)CC1)C(C)CC (stereo not given) |  | 6.39 | 5.26
CC1C(=O)c2nc(CN3N=C(Cl)CCC3=O)[nH]c2N(C)C1=O (stereo not given) | < 4.00 |  | 
CCC(C)C(NC(=O)CN1CCC(C(N)=O)(c2ccccc2)CC1)C(=O)NC(CC(C)C)C(O)CC(=O)NCCCc1ccccc1 (stereo not given) |  | 6.22 | 5.41
CCCCNC(=O)CC(O)C(Cc1ccccc1)NC(=O)C(Cc1ccccc1)NC(=O)COc1ccc2ccccc2c1 (stereo not given) |  | 4.92 | 5.89
CCCCNC(=O)CC(O)C(CC(C)C)NC(=O)C(NC(=O)Cc1cc(OC)ccc1C)C(C)CC (stereo not given) |  | 6.66 | 5.62
CCCCNC(=O)CC(O)C(CC(C)C)NC(=O)C(NC(=O)COc1ccc2ccccc2c1)c1ccccc1 (stereo not given) |  | 6.25 | 6.70
CCCCNC(=O)CC(O)C(CC(C)C)NC(=O)C(CCC(N)=O)NC(=O)COc1ccc2ccccc2c1 (stereo not given) |  | < 4.52 | 6.70
CCCCNC(=O)CC(O)C(Cc1ccccc1)NC(=O)C(NC(=O)COc1ccc2ccccc2c1)c1ccccc1 (stereo not given) |  | 5.24 | 6.96
CCCCNC(=O)CC(O)C(CC(C)C)NC(=O)C(NC(=O)Cc1cc(OC)ccc1C)C(C)C (stereo not given) |  | 6.30 | 5.80
CC1C(=O)c2nc(CN3N=C(c4ccccc4)CCC3=O)[nH]c2N(C)C1=O (stereo not given) | 4.27 |  | 
CCCC1C(=O)c2nc(CN3N=C(c4ccccc4)CCC3=O)[nH]c2N(C)C1=O (stereo not given) | 5.64 |  | 
CCCCNC(=O)CC(O)C(CC(C)C)NC(=O)C(NC(=O)Cc1cc(OC)ccc1C)c1ccccc1 (stereo not given) |  | 6.23 | 5.68
CCCCNC(=O)CC(O)C(Cc1ccccc1)NC(=O)C(CC(C)C)NC(=O)COc1ccc2ccccc2c1 (stereo not given) |  | 5.25 | 6.04
CCCCNC(=O)CC(O)C(CC(C)C)NC(=O)C(NC(=O)Cc1ccc2ccccc2c1)C(C)CC (stereo not given) |  | 7.05 | 7.30
CC1C(=O)c2nc(CCN3N=CCCC3=O)[nH]c2N(C)C1=O (stereo not given) | 4.89 |  | 
CCCCNC(=O)CC(O)C(Cc1ccccc1)NC(=O)[C@@H](NC(=O)c1ccc(CN2CCCC2)cc1)[C@@H](C)CC (stereo not given in full) |  |  | 5.92
CCCCNC(=O)C[C@H](O)[C@H](Cc1ccccc1)NC(=O)[C@@H](NC(=O)COc1ccc2ccccc2c1)C(C)CC (stereo not given in full) |  | 6.96 | 6.25
CCCC1C(=O)c2nc(CN3N=C(Cl)CCC3=O)[nH]c2N(C)C1=O (stereo not given) | 5.04 |  | 

Results, then the compound that gave them:

pKi (Adenosine receptor A1) | pKi (Plasmepsin II) | pKi (Cathepsin D) | Structure (SMILES)
4.90 |  |  | CC1C(=O)c2nc(CCCN3N=CCCC3=O)[nH]c2N(C)C1=O (stereo not given)
6.12 |  |  | CCCC1C(=O)c2nc(CCN3N=C(c4ccccc4)CCC3=O)[nH]c2N(C)C1=O (stereo not given)
6.43 |  |  | CC1C(=O)c2nc(CCCCN3N=C(Cl)CCC3=O)[nH]c2N(C)C1=O (stereo not given)
 | 7.30 | 6.49 | CCCCNC(=O)CC(O)C(Cc1ccccc1)NC(=O)C(NC(=O)Cc1ccc2ccccc2c1)C(C)CC (stereo not given)
4.83 |  |  | CC1C(=O)c2nc(CCN3N=C(Cl)CCC3=O)[nH]c2N(C)C1=O (stereo not given)
6.42 |  |  | CCCC1C(=O)c2nc(CCCCN3N=C(c4ccccc4)CCC3=O)[nH]c2N(C)C1=O (stereo not given)
6.72 |  |  | CCCC1C(=O)c2nc(CCCCN3N=C(Cl)CCC3=O)[nH]c2N(C)C1=O (stereo not given)
5.06 |  |  | CC1C(=O)c2nc(CCCN3N=C(Cl)CCC3=O)[nH]c2N(C)C1=O (stereo not given)
6.09 |  |  | CCCC1C(=O)c2nc(CCCN3N=C(c4ccccc4)CCC3=O)[nH]c2N(C)C1=O (stereo not given)
5.21 |  |  | CC1C(=O)c2nc(CCN3N=C(c4ccccc4)CCC3=O)[nH]c2N(C)C1=O (stereo not given)
4.97 |  |  | CC1C(=O)c2nc(CCCN3N=C(c4ccccc4)CCC3=O)[nH]c2N(C)C1=O (stereo not given)
5.92 |  |  | CCCC1C(=O)c2nc(CCCN3N=C(Cl)CCC3=O)[nH]c2N(C)C1=O (stereo not given)

Reference: ChEMBL document CHEMBL1148458, “Incorporating molecular shape into the alignment-free Grid-Independent Descriptors” (J Med Chem, 2004)
